Where “and” joins values, the source holds several entries; their conditions need not be identical. Equal entries are not always repeated.
Assays:
[1] = test system: P. falciparum stage III–IV gametocytes; assay: P. falciparum gametocyte viability assay (MitoTracker, flow cytometry), stage III-IV; assay type: cell-based, Plasmodium falciparum; details: 48 h; for Gametocyte stage III-IV viability, percentage of control: replicate values, source data Fig. 2C, listed as BC5B
Description: (§1) Gametocyte assays commenced seven days (stage III–IV) or ten days (stage V) post-invasion. […]
(§2) Plasmodium falciparum Gametocyte Viability Assays:
(§3) Asexual P. falciparum parasites were induced to form gametocytes as described (21).
(§4) Synchronized trophozoite-stage parasites at 2% parasitaemia were incubated overnight and […]
(§5) haematocrit maintained at 4%. On the subsequent day (designated as day 0) of gametocytogenesis, the culture containing early ring-stage parasites was first purified by sorbitol synchronisation to remove asynchronous trophozoites, and passed through a magnetic field in a sterile MACS® column in a SuperMACSTM II magnet to remove remaining late-stage parasites or later-stage gametocytes (negative selection). The culture medium was supplemented with 50 mM N-acetyl-D-glucosamine to inhibit asexual parasite proliferation, and changed daily. Sorbitol treatment was performed on Day 1, 5, and 6 to further remove asexual parasites. Gametocytes were magnetically enriched (positive selection) in a sterile column with a SuperMACSTM II magnet and eluted in culture media with 50 mM N-acetyl-D-glucosamine. These gametocytes were incubated overnight at 37 °C under microaerophilic conditions, and purity was assessed by examination under a light microscope (400× […]
(§6) Gametocyte viability was assessed as described by Ridgway et al. (21) with modifications.
(§7) Compounds or solvent controls (DMSO) were serially diluted across 96-well plates in culture media supplemented with 50 mM N-acetyl-D-glucosamine. Culture media without compound was used as a negative control. […]
(§8) control to determine background gametocyte fluorescence. Stage III-IV gametocytes (Day 7) or stage V (day 10) gametocytes were concentrated and added to the plate with 200 µL per well. The plate was incubated for 48 hours at 37 °C under humid microaerophilic conditions.
(§9) Parasites were then stained with 500 nM MitoTrackerTM Deep Red FM and 5 μg/ml Hoechst […]
(§10) cytometer as described above. […]
(§11) excluded. Live (positive) and dead (negative) gametocytes were differentiated by […]
(§12) percentage of each was calculated. […]

[2] = test system: P. falciparum stage V gametocytes; assay: P. falciparum gametocyte viability assay (MitoTracker, flow cytometry), stage V; assay type: cell-based, Plasmodium falciparum; details: 48 h
Description: as §1, §2, §3, §4, §5, §6, §7, §8, §9, §10, §11, §12

[3] = test system: human hepatoma cells (Huh7); assay: Human hepatoma viability assay (CellTiter-Blue); assay type: cell-based; details: for Huh7 viability, dose-response data points (Figure 3F): replicate data points, listed as BC5B
Description: Huh7 hepatoma viability assays were conducted in the same manner as the P. berghei assays, with metabolic capacity (indicating viability) measured with a fluorescence microplate reader after incubation with CellTiter-Blue® (Promega) for 3 h.
Appendix Fraser/Curtis et al. […]
Human Hepatoma Viability Assays:
The Huh7 hepatoma cell line (ATCC) was maintained under routine culture conditions in Dulbecco's Modified Eagle Medium (DMEM) containing 3.7 g/L NaHCO3 supplemented with 10% foetal bovine serum (FBS), 100 units/mL penicillin, and 100 μg/mL streptomycin at 37 °C in a humidified 5% CO2 incubator.
Viability assays were performed in parallel to the P. berghei growth inhibition. 10,000 Huh7 cells were seeded in 96-well and dark-sided microplates (Greiner Bio One) and cultured at 37°C, 5% CO2 and 80% humidity. The next day, the media was replaced with compounds or solvent controls (DMSO) serially diluted in culture media. Media was partially replaced with new drug dilutions over the following two days. After 48 hours, CellTiter-Blue® (Promega) was added according to the manufacturer’s instructions and incubated for 3 hours. Fluorescence intensity was measured with 530/25 ex and 590/20 em in a Synergy HTX plate reader (Agilent).

[4] = test system: human foreskin fibroblasts (HFF); assay: Human foreskin fibroblast growth inhibition assay (SYBR Safe); assay type: cell-based; details: 72 h
Description: HFF cell growth inhibition assays commenced by adding 5000 cells to each well of a 96-well plate. 10 µg/mL cycloheximide was used as a no-growth control. DNA replication (indicating growth) was measured at the specified time using SYBR Safe DNA Gel Stain (Invitrogen 33102) and a fluorescence microplate reader. […]
Human Foreskin Fibroblast Growth Inhibition Assays:
The HFF cell line was maintained under routine culture conditions in DMEM containing 3.7 g/L NaHCO3 supplemented with 10% v/v newborn calf serum (NCS), 50 units/mL penicillin, 50 μg/mL streptomycin, 10 μg/mL gentamicin, 0.25 μg/mL amphotericin B, and 0.2 mM L-glutamine at 37 °C in a humidified 5% CO2 incubator. […]
HFF cells were detached from a flask using 0.25% Trypsin with 0.2 g/L EDTA (Sigma T4049) and washed with culture media. Cells were incubated with a serial dilution of each compound, or media/DMSO alone. Cycloheximide at 10 µg/mL was used as a positive control to determine background fluorescence. Approximately 5 000 cells were seeded in each well. Plates were incubated at 37 °C for 72 hours (until reaching confluency) and the media was removed. Plates were transferred to a -18 °C freezer. Plates were thawed and SYBR Safe DNA Gel Stain (final concentration 1/10,000) diluted in lysis buffer (as above) was added. Fluorescence was read at 490 nm excitation/ 520 nm emission on a FLUOstar Optima fluorescence plate reader. […]

COc1cc(NC(C)CCCNC(=O)CCC(=O)O[C@H]2CC[C@H]3[C@@H]4CC=C5C[C@@H](O)CC[C@]5(C)[C@H]4CC[C@]23C)c2ncccc2c1 (stereo partly shown) [C-17-PQ]
Gametocyte stage III-IV viability, percentage of control ([1]; 0.390625000 uM, 0.390625 µM): 106.6% and 106.4% and 106.3% and 105.9% and 97.84% and 98.56% and 99.18% and 96.09% and 94.81% and 99.34% and 96.51% | Gametocyte stage III-IV viability, percentage of control ([1]; 0.781250000 uM, 0.78125 µM): 105.6% and 103.6% (2×) and 99.85% and 95.38% and 98.97% and 96.71% and 98.76% and 95.09% and 98.49% and 100.2% | Gametocyte stage III-IV viability, percentage of control ([1]; 1.562500000 uM, 1.5625 µM): 98.2% and 92.41% and 99.85% and 96.05% and 86.9% and 96.5% and 96.91% and 95.26% and 86.31% and 88.01% and 87.16% | Gametocyte stage III-IV viability, percentage of control ([1]; 3.125000000 uM, 3.125 µM): 76.23% and 73.04% and 83.77% and 78.85% and 72.15% and 82.91% and 79.82% and 79.41% and 67.61% and 67.33% and 65.91% | Gametocyte stage III-IV viability, percentage of control ([1]; 6.250000000 uM, 6.25 µM): 47.47% and 48.87% and 53.06% and 57.19% and 51.38% and 37.08% and 52.02% and 49.97% and 47.91% and 50.9% (2×) and 52.03% | Gametocyte stage III-IV viability, percentage of control ([1]; 12.500000000 uM, 12.5 µM): 32.49% and 39.99% and 32.61% and 29.26% and 32.88% and 27.73% and 25.88% and 43.81% | Gametocyte stage III-IV viability, percentage of control ([1]; 25.000000000 uM): 17.71% and 16.11% and 15.11% and 33.28% and 21.89% and 14.3% and 17.64% and 12.08% and 12.7% and 13.79% and 6.704% and 7.271% | Gametocyte stage III-IV viability, percentage of control ([1]; 50.000000000 uM): 5.639% and 8.492% and 6.658% and 16.42% and 3.442% and -2.383% and -3.188% and -11.09% and -14.21% and 3.059% and -3.824% and -12.14% | Gametocyte stage III-IV viability, percentage of control ([1]; 100.000000000 uM): 3.289% and 0.9211% and -0.4605% and 9.774% and -7.24% and -17.63% and -19.17% and -25.26% and -26.31% and -15.93% and -26.87% and -31.48% | Fold reduction in IC50 compared to primaquine alone [1]: 9 fold | viability at 0.390625 µM ([1]; Plasmodium falciparum, read-out: Gametocyte stage III-IV viability, percentage of control, 0.390625000 uM, 48 h, replicate values, source data Fig. 2C): 105% | viability at 0.78125 µM ([1]; Plasmodium falciparum, read-out: Gametocyte stage III-IV viability, percentage of control, 0.781250000 uM, 48 h, replicate values, source data Fig. 2C): 101% | viability at 1.5625 µM ([1]; Plasmodium falciparum, read-out: Gametocyte stage III-IV viability, percentage of control, 1.562500000 uM, 48 h, replicate values, source data Fig. 2C): 95% | viability at 3.125 µM ([1]; Plasmodium falciparum, read-out: Gametocyte stage III-IV viability, percentage of control, 3.125000000 uM, 48 h, replicate values, source data Fig. 2C): 72.4% | viability at 12.5 µM ([1]; Plasmodium falciparum, read-out: Gametocyte stage III-IV viability, percentage of control, 12.500000000 uM, 48 h, replicate values, source data Fig. 2C): 31.7% | IC50 ([1]; Plasmodium falciparum, read-out: IC50, P. falciparum gametocyte stage III-IV inhibition, 48 h): 7.1 µM | Fold reduction in IC50 compared to primaquine alone [2]: > 2 fold | viability at 3.125 µM ([2]; Plasmodium falciparum, read-out: Gametocyte stage V viability, percentage of control, 3.125000000 uM, 48 h, replicate values, source data Fig. 2D): 74.7% | IC50 ([2]; Plasmodium falciparum, read-out: IC50, P. falciparum gametocyte stage V inhibition): 6.8 µM | Huh7 viability, dose-response data points (Figure 3F) ([3]; 0.015241580 uM, 0.0152416 µM): 98.89 and 98.22 and 98.39 and 94.42 and 103 and 100.2 and 102.1 and 98.78 | Huh7 viability, dose-response data points (Figure 3F) ([3]; 0.045724740 uM, 0.0457247 µM): 96.51 and 98.69 and 94.1 and 96.38 and 90.79 and 82.31 and 84.01 and 89.64 | Huh7 viability, dose-response data points (Figure 3F) ([3]; 0.137174210 uM, 0.137174 µM): 106.8 and 96.95 and 95.92 and 94.98 and 96.42 and 101.8 and 95.52 and 109.1 | Huh7 viability, dose-response data points (Figure 3F) ([3]; 0.411522630 uM, 0.411523 µM): 95.23 and 97.59 and 96.23 and 88.28 and 94.64 and 96.4 and 105 and 96.39 | Huh7 viability, dose-response data points (Figure 3F) ([3]; 1.234567900 uM, 1.23457 µM): 95.71 and 98.77 and 99.42 and 84.3 and 74.81 and 88.03 and 77.15 and 83 and 86.37 | Huh7 viability, dose-response data points (Figure 3F) ([3]; 3.703703700 uM, 3.7037 µM): 88.28 and 89.97 and 90.65 and 52.83 and 57.73 and 57.82 and 45.17 and 51.57 and 42.91 | Huh7 viability, dose-response data points (Figure 3F) ([3]; 11.111111100 uM, 11.1111 µM): 75.95 and 74.95 and 78.75 and 46.5 and 49.1 and 49.17 and 39.05 and 40.11 and 38.75 | Huh7 viability, dose-response data points (Figure 3F) ([3]; 33.333333300 uM, 33.3333 µM): 79.29 and 78.52 and 76.32 and 47.53 and 46.72 and 48.69 and 34.13 and 38.39 and 36.44 | Huh7 viability, dose-response data points (Figure 3F) ([3]; 100.000000000 uM): 80.41 and 81.45 and 81.11 and 48.76 and 54.16 and 52.59 and 35.21 and 39.74 and 37.9 | IC50 ([3]; Homo sapiens, Huh-7, 48 h, read-out: IC50, human hepatoma inhibition (viability)): > 50 µM | Maximal inhibition of fibroblast growth at the range of concentrations tested ([4]; HFF): ≤ 30% | IC50 ([4]; Homo sapiens, Fibroblast, read-out: IC50, human fibroblast growth inhibition): > 290 µM

— article PMC11251039, “Harnessing cholesterol uptake of malaria parasites for therapeutic applications” (EMBO Molecular Medicine, 2024)
